Measured values taken from patent publication US8796327B2, “Method for inhibiting production of cytokines of T helper cell type II and/or inhibiting production of chemokines using brazilin” (China Medical University, priority 2010, dated 2014).

System: invasion of inflammatory cells into the lungs
Assay: Histopathological examination of H&E stained lung tissue slices, mice with asthma (OVA)
Type: in vivo
Details: OVA-sensitized BALB/c mice, result in words
Experimental: In Example 2, mice with asthma were used to conduct in vivo experiments, and ovalbumin (OVA) was used as an allergen.
The mice were sensitized (or challenged) according to the steps shown in FIG. 9 (see Lee et al., Lentiviral-mediated GATA-3 RNAi decreases allergic airway inflammation and hyperresponsiveness. Molecular Therapy, 2008; 16:60-65, which is incorporated herein in its entirety by reference). First, 50 μg OVA (using 2 mg alumina (Alum, Alumlmuject, Pierce Chemical, Rockford, Ill., USA) as an adjuvant) was injected into six to eight-week-old BALB/c female mice (from National Laboratory Animal Center, Taiwan) by intraperitoneal injection (i.p.). At 0th, 14th, and 28th day, the mice were injected with OVA at the same dosage. Before the administration of OVA at the forty-first and the forty-second days, different dosages of brazilin (high dose: 430 μg/mice; low dose: 43 μg/mice) were administrated to the mice by intraperitoneal injection (i.p.) or intratracheal instillation (i.t.). During the fortieth to the forty-second days, 100 μg OVA was dissolved in 40 μl PBS, and was administrated to the mice by intranasal instillation (i.n.) (once everyday, for three days). At the forty-third day, airway hyperresponsiveness of the mice was observed. […]

## Oc1ccc2c(c1)OC[C@]1(O)Cc3cc(O)c(O)cc3[C@H]21 [brazilin]
  invasion of inflammatory cells (H&E lung slices, FIG. 11): reduced
